The text below walks through data of PubChem BioAssay (NCI).

Test systems include MDA-MB-231 breast; HCT-116 colon; HT29 colon; HCC-2998 colon; COLO 205 colon; SK-MEL-2 melanoma; OVCAR-4 ovarian; MCF7 breast; M14 melanoma; UACC-257 melanoma; T-47D breast; 786-0 renal; MDA-N; NCI-H522 lung; CCRF-CEM leukemia; MALME-3M melanoma; A498 renal; UACC-62 melanoma; SR leukemia.
What all share (assay): NCI anticancer screen, dose series, 48 h

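Step 1: Grow cells in 96-well plates. Step 2: Expose to compound for 48 hours at 5 concentrations. Step 3: Interpolate endpoints linearly; if unreached, use highest concentration. TGI is the concentration that stops growth completely.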 Some results are limits rather than exact numbers.

For the compound `O=c1oc2ccccc2c(O)c1/C=N/C(=S)NCc1ccccc1`, the TGI in the assay on MDA-MB-231 breast, in the assay with HCT-116 colon, in the assay with HT29 colon, in the assay on HCC-2998 colon, in the assay on COLO 205 colon and in the assay with SK-MEL-2 melanoma was above 100 µM throughout. The TGI in the assay on OVCAR-4 ovarian, in the assay on MCF7 breast, in the assay with M14 melanoma, in the assay on UACC-257 melanoma, in the assay with T-47D breast and in the assay with 786-0 renal was above 100 µM in each case. In the assay with MDA-N, this compound returned a TGI above 100 µM.

For the compound `CN(C)c1ccc(-c2c(C#N)c(O)n(NS(=O)(=O)c3ccccc3)c(=O)c2C#N)cc1`, the TGI in the assay with MDA-MB-231 breast, with HCT-116 colon, in the assay on HT29 colon, in the assay with NCI-H522 lung, with CCRF-CEM leukemia and in the assay on HCC-2998 colon was above 100 µM in each case. Moreover, the TGI in the assay with COLO 205 colon, with SK-MEL-2 melanoma, in the assay with OVCAR-4 ovarian, in the assay on MCF7 breast, with M14 melanoma and in the assay on MALME-3M melanoma was above 100 µM each time. The TGI in the assay on A498 renal, with UACC-257 melanoma, in the assay with 786-0 renal, in the assay with UACC-62 melanoma and with MDA-N was above 100 µM throughout.

`CC1(C)OCC(C2OC(OC(=O)c3ccc([N+](=O)[O-])cc3)C3OC(C)(C)OC23)O1` (configuration not stated): the TGI in the assay with MDA-MB-231 breast, in the assay on HCT-116 colon, in the assay with HT29 colon, with SR leukemia, in the assay on NCI-H522 lung and in the assay on CCRF-CEM leukemia was above 100 µM throughout. Moreover, the TGI in the assay on HCC-2998 colon, in the assay on COLO 205 colon, in the assay with SK-MEL-2 melanoma, with OVCAR-4 ovarian, in the assay with MCF7 breast and in the assay with M14 melanoma was above 100 µM throughout. In addition, the TGI with MALME-3M melanoma, in the assay on A498 renal, in the assay on UACC-257 melanoma, in the assay with 786-0 renal, with UACC-62 melanoma and in the assay with MDA-N was above 100 µM in each case.

`CCN1C(=O)/C(=C2\SC(c3ccccc3)(c3ccccc3)c3ccccc32)SC1=S`: the TGI is above 100 µM with MDA-MB-231 breast; above 100 µM in the assay with HCT-116 colon; above 100 µM in the assay on HT29 colon; 42.9 µM in the assay on SR leukemia; above 100 µM in the assay with NCI-H522 lung; above 100 µM with CCRF-CEM leukemia. For the same compound, the TGI with HCC-2998 colon, with COLO 205 colon, with OVCAR-4 ovarian, with MCF7 breast, with M14 melanoma and in the assay with MALME-3M melanoma was above 100 µM throughout. The TGI with A498 renal, in the assay with UACC-257 melanoma, with 786-0 renal, in the assay with UACC-62 melanoma and with MDA-N was above 100 µM in each case.

On to `O=c1c2ccccc2nc2n1C(c1ccc([N+](=O)[O-])cc1)C2(c1ccccc1)c1ccccc1` (configuration not stated), for which the TGI with MDA-MB-231 breast, in the assay on HCT-116 colon, with HT29 colon, in the assay with NCI-H522 lung, in the assay with CCRF-CEM leukemia and in the assay with COLO 205 colon was above 100 µM in each case. In addition, the TGI in the assay with SK-MEL-2 melanoma, in the assay with OVCAR-4 ovarian, in the assay with MCF7 breast, with M14 melanoma, with MALME-3M melanoma and with A498 renal was above 100 µM throughout. Moreover, the TGI with UACC-257 melanoma, with T-47D breast, in the assay with 786-0 renal, in the assay with UACC-62 melanoma and in the assay with MDA-N was above 100 µM each time.

As to `O=C(Nc1nc(C23CC4CC(CC(C4)C2)C3)cs1)c1cc2cc(Cl)ccc2oc1=O`, the TGI with MDA-MB-231 breast, in the assay with HCT-116 colon, in the assay with HT29 colon, with SR leukemia, with NCI-H522 lung and with CCRF-CEM leukemia was above 100 µM each time. In addition, the TGI in the assay with HCC-2998 colon, in the assay on COLO 205 colon, with OVCAR-4 ovarian, with MCF7 breast, with MALME-3M melanoma and with A498 renal was above 100 µM in each case. Besides, the TGI in the assay with UACC-257 melanoma, with 786-0 renal and in the assay on MDA-N was above 100 µM throughout.

As for `COc1cc(CNC2=NCCC2)cc(OC)c1OC`, the TGI in the assay with HCT-116 colon, with HT29 colon, in the assay with NCI-H522 lung, in the assay with CCRF-CEM leukemia, in the assay on HCC-2998 colon and in the assay with COLO 205 colon was above 100 µM throughout. Further, the TGI with OVCAR-4 ovarian, with MCF7 breast, in the assay on M14 melanoma, in the assay on MALME-3M melanoma, with UACC-257 melanoma and in the assay with 786-0 renal was above 100 µM each time. Also, the TGI with UACC-62 melanoma and in the assay on MDA-N was above 100 µM in each case.

`Cc1[nH]n(C(=N)N)c(=O)c1CCO`: the TGI with MDA-MB-231 breast, with HCT-116 colon, with HT29 colon, in the assay on SR leukemia, with NCI-H522 lung and in the assay with CCRF-CEM leukemia was above 100 µM each time. In addition, the TGI with HCC-2998 colon, in the assay with COLO 205 colon, in the assay on SK-MEL-2 melanoma, with OVCAR-4 ovarian, in the assay on MCF7 breast and with M14 melanoma was above 100 µM in each case. The TGI in the assay on MALME-3M melanoma was above 100 µM; in the assay on A498 renal it was above 100 µM; in the assay with UACC-257 melanoma, above 100 µM; with 786-0 renal, 3.08 µM; with UACC-62 melanoma, above 100 µM; in the assay on MDA-N it was above 100 µM.

On to `CN1C(=O)C(C(N)=O)C2CC1(C)Oc1ccccc12` (configuration not stated), for which the TGI in the assay with MDA-MB-231 breast, with HCT-116 colon, with HT29 colon, in the assay on SR leukemia, in the assay with NCI-H522 lung and with CCRF-CEM leukemia was above 100 µM in each case. Further, the TGI in the assay on HCC-2998 colon, in the assay on COLO 205 colon, with SK-MEL-2 melanoma, in the assay with OVCAR-4 ovarian, in the assay with MCF7 breast and in the assay with M14 melanoma was above 100 µM throughout. Besides, the TGI with MALME-3M melanoma, in the assay on A498 renal, in the assay on UACC-257 melanoma, in the assay with T-47D breast, in the assay with 786-0 renal and in the assay with UACC-62 melanoma was above 100 µM throughout.
